Source: patent publication US11571413B2, “Nicotinamide riboside treatments of domesticated meat animals” (Kansas State University Research Foundation, priority 2017, dated 2023)
Marks after values point to notes of the source that are not given here.

Test system: Fertilized Cobb 500 broiler eggs
Experiment: In ovo NR dose, time course of body and pectoralis major morphometrics at E15, E19, hatch (second Example VI)
Assay type: in vivo, chicken
Description: Fertilized Cobb 500 broiler eggs (N=247; Cobb Vantress, Siloam Springs, Ark.) were transported to Kansas State University Muscle Biology Laboratory (Manhattan, Kans.), egg weights were recorded, and within each 4 egg strata eggs were randomly assigned to an NR treatment (0 mM, 250 mM, 500 mM, or 1 M NR). After treatment allocation, eggs were put onto trays and placed in a Sportsman 1502 incubator (GQF Manufacturing Company Inc., Savannah, Ga.) set to operate at 37° C. and 40±4% relative humidity. Trays were rotated hourly to reposition eggs and egg weights were recorded daily to determine percentage weight loss with a standard daily weight loss ranging from 0.65% to 0.75%.
At d 10 of incubation, the methods of Gonzalez and Jackson (2020) were followed for treatment administration. Eggs were briefly removed from the incubator and prior to injection, the injection site was cleaned with 70% ethanol. […] of 0.9% sterile saline was injected into yolk sac of each egg with a 2.54-cm, 20-guage injection needle inserted approximately 1-cm into injection site. The injection site was covered with a 1-cm^2 portion of medical tape (Nexcare; 3M, Maplewood, Minn.) and placed back into the incubator under the conditions described above. At d 18 of incubation, egg were removed from their trays, placed in hatching boxes, and the humidity of the incubator was increased to 60±2%.
At three time points, E (i.e., embryonic day 15, day 15 after the beginning of incubation), E19, and 24 hours post-hatching, embryos and chicks were euthanized by exposure to CO2 and decapitation. Crown to rump length (CR), head width and head length were measured by calipers (Traceable Digital Calipers; Fisher Scientific, Pittsburg, Pa.). Head and chest circumference were collected by curling a string around the target area and measuring the length of the curled string by a ruler. Chicks chest were sprayed with 70% ethanol, were skinned to expose the PMM, and chest width and length were measured by calipers. Both sides of the PMM were removed and the left side was weighed, followed by length, width, and thickness measurement collection. Following measurement collection, the left PMM was submerged in optimal cutting temperature tissue freezing medium compound, slowly frozen at −20° C. for 1 h, and stored at −80° C. until cryosectioning. The right side of PMM was stored in a 1.5 ml microcentrifuge tube and stored at −80° C. until NAD+ analysis. At last, the heart and liver of each chick were removed, weighed, and discarded.

[1] = 250 mM NR into yolk sac d 10, E15 embryos
[2] = 250 mM NR into yolk sac d 10, E19 embryos
[3] = 250 mM NR into yolk sac d 10, hatched chicks
[4] = 500 mM NR into yolk sac d 10, E15 embryos
[5] = 500 mM NR into yolk sac d 10, E19 embryos
[6] = 500 mM NR into yolk sac d 10, hatched chicks
[7] = 1,000 mM NR into yolk sac d 10, E15 embryos
[8] = 1,000 mM NR into yolk sac d 10, E19 embryos
[9] = 1,000 mM NR into yolk sac d 10, hatched chicks
[10] = E19 embryos, 250 to 1,000 mM NR

Work on `NC(=O)c1ccc[n+]([C@@H]2O[C@H](CO)[C@@H](O)[C@H]2O)c1` [Nicotinamide riboside, nicotinamide riboside] yielded a Body weight [1] of 14.5 g, a Crown-rump length [1] of 61.4 mm and a Head length [1] of 17.6 mm. For the same compound, the Head width [1] was 13.7 mm, the Heart weight [1] was 0.14 g and the Liver weight [1] was 0.27 g. The Pectoralis major depth [1] was 7.2 mm, the Pectoralis major length [1] was 18.3 mm and the Pectoralis major weight [1] was 0.81 g. It also gave a Pectoralis major width [1] of 14.7 mm, a Body weight [2] of 37.7 g and a Chest circumference [2] of 59.5 mm. It also gave a Chest length [2] of 18.6 mm, a Chest width [2] of 15.5 mm and a Crown-rump length [2] of 84.3 mm. The Head circumference [2] was 53.2^a,c mm, the Head length [2] was 17.7 mm and the Head width [2] was 15.4 mm. For the same compound, the Heart weight [2] was 0.22 g, the Liver weight [2] was 0.64 g and the Pectoralis major depth [2] was 2.9 mm. For the same compound, the Pectoralis major length [2] was 17.2^b mm, the Pectoralis major weight [2] was 0.17^b g and the Pectoralis major width [2] was 5.5 mm. It also gave a Body weight [3] of 46.9 g, a Chest circumference [3] of 61.2 mm and a Chest length [3] of 21.9 mm. The Chest width [3] was 17.1^b mm, the Crown-rump length [3] was 95.4 mm and the Head circumference [3] was 55.7 mm. The Head length [3] was 18.7^b mm, the Head width [3] was 15.5 mm and the Heart weight [3] was 0.31 g. The Liver weight [3] was 0.84 g, the Pectoralis major depth [3] was 3.1^a,b mm and the Pectoralis major length [3] was 19.9^b mm. For the same compound, the Pectoralis major weight [3] was 0.23^b g, the Pectoralis major width [3] was 5.5^b mm and the Body weight [4] was 14.2 g. The Crown-rump length [4] was 61.1 mm, the Head length [4] was 17.8 mm and the Head width [4] was 13.7 mm. For the same compound, the Heart weight [4] was 0.13 g, the Liver weight [4] was 0.25 g and the Pectoralis major depth [4] was 7.1 mm. For the same compound, the Pectoralis major length [4] was 17.8 mm, the Pectoralis major weight [4] was 0.82 g and the Pectoralis major width [4] was 15.2 mm. It also gave a Body weight [5] of 37.9 g, a Chest circumference [5] of 60.1 mm and a Chest length [5] of 18.5 mm. For the same compound, the Chest width [5] was 16.3 mm, the Crown-rump length [5] was 85.9 mm and the Head circumference [5] was 54.8^b,c mm. For the same compound, the Head length [5] was 17.4 mm, the Head width [5] was 15.3 mm and the Heart weight [5] was 0.22 g. The Liver weight [5] was 0.64 g, the Pectoralis major depth [5] was 2.7 mm and the Pectoralis major length [5] was 17.7^b mm. The Pectoralis major weight [5] was 0.18^b g, the Pectoralis major width [5] was 5.7 mm and the Body weight [6] was 46.1 g. The Chest circumference [6] was 62.5 mm, the Chest length [6] was 21.2 mm and the Chest width [6] was 16.6^a,b mm. The Crown-rump length [6] was 95.0 mm, the Head circumference [6] was 55.6 mm and the Head length [6] was 18.2^a,b mm. For the same compound, the Head width [6] was 15.7 mm, the Heart weight [6] was 0.31 g and the Liver weight [6] was 0.90 g. For the same compound, the Pectoralis major depth [6] was 3.3^b mm, the Pectoralis major length [6] was 20.3^b mm and the Pectoralis major weight [6] was 0.23^b g. The Pectoralis major width [6] was 5.6^b mm, the Body weight [7] was 13.9 g and the Crown-rump length [7] was 61.0 mm. For the same compound, the Head length [7] was 17.4 mm, the Head width [7] was 14.0 mm and the Heart weight [7] was 0.14 g. For the same compound, the Liver weight [7] was 0.28 g, the Pectoralis major depth [7] was 6.6 mm and the Pectoralis major length [7] was 18.5 mm. For the same compound, the Pectoralis major weight [7] was 0.84 g, the Pectoralis major width [7] was 14.9 mm and the Body weight [8] was 38.1 g. For the same compound, the Chest circumference [8] was 61.5 mm, the Chest length [8] was 18.3 mm and the Chest width [8] was 15.4 mm. For the same compound, the Crown-rump length [8] was 86.3 mm, the Head circumference [8] was 55.0^b mm and the Head length [8] was 17.6 mm. The Head width [8] was 15.4 mm, the Heart weight [8] was 0.23 g and the Liver weight [8] was 0.63 g. For the same compound, the Pectoralis major depth [8] was 2.9 mm, the Pectoralis major length [8] was 17.6^b mm and the Pectoralis major weight [8] was 0.17^b g. It also gave a Pectoralis major width [8] of 5.6 mm, a Body weight [9] of 46.6 g and a Chest circumference [9] of 61.4 mm. The Chest length [9] was 21.1 mm, the Chest width [9] was 16.1^a mm and the Crown-rump length [9] was 93.0 mm. For the same compound, the Head circumference [9] was 53.9 mm, the Head length [9] was 17.8^a mm and the Head width [9] was 15.5 mm. The Heart weight [9] was 0.32 g, the Liver weight [9] was 0.96 g and the Pectoralis major depth [9] was 3.0^a mm. The Pectoralis major length [9] was 19.1^a,b mm, the Pectoralis major weight [9] was 0.22^b g and the Pectoralis major width [9] was 5.4^b mm. For the same compound, the “Increase of PMM length (minimum over NR doses)” value [10] was at least 13%, the “Increase of PMM weight (minimum over NR doses)” value [10] was at least 21% and the “Increase in PMM depth” value (at hatch) was 18%. The “Increase in PMM length” value (at hatch) was 13%, the “Increase in PMM width” value (at hatch) was 17% and the PMM weight advantage (at hatch) was 35%.
